Key:
Format in all cases: cell-based
[1] = test system: Ba/F3-ETV6-BTK-T474I cells; experiment: Viability assay of Ba/F3-ETV6-BTK-T474I cells (CTG); details: Mus musculus, BaF3, cell viability, 72 hours
Experimental: The in vitro antiproliferative activity of the compounds of the present disclosure against Ba/F3-ETV6-BTK-T474I cells was assayed using CTG luminescent cell viability assay. The specific assay methods were as follows: • a) Ba/F3-ETV6-BTK-T474I cells were cultured at 37 °C and 5% CO2 in complete medium [RPMI 1640 (supplier Gibco, product number 22400-089) + 10% FBS (supplier Gibco, product number 10091-148)]. • b) Cells in the logarithmic growth phase were harvested, and cell counting was performed using a […]. Trypan blue exclusion test was used to determine the cell viability, ensuring that the cell viability was above 90%. • c) Cell density was adjusted using complete culture medium. Then, the cells were inoculated at 90 µL, a total of 3000 cells per well in a 96-well cell culture plate (supplier: Shanghai Jing An Biotechnology Co., Ltd., product number J09601). • d) The cells in the 96-well plate were cultured at 37 °C and 5% CO2. • e) A 10-fold drug solution was prepared, and then 10 µL of each serially diluted compound was transferred to the corresponding assay wells of the 96-well cell plate so that the final assay concentration was 1000 nM, with 9 concentrations, 3.16-fold dilutions, and triplicates for each drug concentration. • f) The cells in the 96-well plate with the drug added were cultured at 37 °C and 5% CO2 for another 72 hours. Then, CTG analysis was performed. • g) The CTG reagent was melted, and the cell plate was equilibrated at room temperature for 30 minutes. • h) An equal volume of CTG solution was added to each well. • i) The plate was shaken on an orbital shaker for 5 minutes to lyse the cells. • j) The cell plate was placed at room temperature for 20 minutes to stabilize the luminescent signal. • k) The luminescent signal values were read and the data were collected.
The data were analyzed using GraphPad Prism 7.0 software. Nonlinear S-curve regression was used to fit the data to give a dose-response curve, from which the IC50 values were calculated. [formula]

OCI-LY10 cells = experiment: Viability assay of OCI-LY10 cells (CTG); details: Homo sapiens, OCI-Ly10, 120 h, cell viability, read-out: OCl-Ly10
Experimental: (§1) The in vitro antiproliferative activity of the compounds of the present disclosure against TMD8 cells and OCI-LY10 cells was assayed using CTG (Cell Titer-Glo) luminescent cell viability assay. The specific assay methods were as follows. • a) TMD8 cells were cultured at 37 °C and 5% CO2 in complete medium [RPMI 1640 (supplier Gibco, product number 22400-089) + 10% FBS (supplier Gibco, product number 10091-148) + 1% P/S (supplier Hyclone, product number SV30010)]; OCI-LY10 cells were cultured at 37 °C and 5% CO2 in medium [IMDM (supplier Gibco, product number 31980-030) + 20% FBS (supplier Gibco, product number 10091-148) + 1% P/S (supplier Hyclone, product number SV30010) + 0.05 mM 2-Mercaptoethanol (supplier Sigma, product number M6250)]. • b) Cells in the logarithmic growth phase were harvested, and the total cell count and viable cell count were determined using a Vi-cell cell counter (supplier: BECKMAN COULTER, product number 2785198). • c) Cell density was adjusted using complete culture medium. Then, the cells were inoculated at 1500 cells per well in a 384-well cell culture plate (supplier Greiner, product number 781090). • d) The cells in the 384-well plate were cultured at 37 °C and 5% CO2 overnight. • e) A 10-fold drug solution was prepared, and then the serially diluted compound was transferred to the corresponding assay wells of the 384-well cell plate so that the final assay concentration was 1000 nM, with 9 concentrations, 3-fold dilutions, and triplicates for each drug concentration. • f) The cells in the 384-well plate with the drug added were cultured at 37 °C and 5% CO2 for another 120 hours. • g) The cells were removed from the incubator, and allowed to equilibrate at room temperature for 30 minutes. The cell state and compound solubility were observed under a microscope. • h) An equal volume of CellTiterGlo solution (supplier Promega, product number G7573) was added to each well, and the plate was incubated at room temperature for 30 minutes. • i) Then, the luminescent signal value was detected on an EnVision instrument (supplier PerkinElmer, product number 2441715).
(§2) The data were analyzed using XL-fit software (supplier: ID Business Solutions Ltd., software version: XL fit 5.5.0.5). Nonlinear regression was performed using X=Log(X), and the X values were transformed using a four-parameter Logistic model 205, from which the IC50 values were calculated. Inhibition rate % = (Max−samplevalue)/Max*100.(Max:DMSOnegativecontrol) [formula]

TMD8 cells = experiment: Viability assay of TMD8 cells (CTG); details: Homo sapiens, cell viability, 120 hours
Experimental: as §1, §2

Row | IC50 [1] | IC50 (OCI-LY10 cells) | SMILES | IC50 (TMD8 cells)
1 | 10 to 50 nM | ≤ 5 nM | COc1ccc(F)cc1C(=O)NCc1ccc(-c2ncc(-c3ccc(C)cn3)c3[nH]nc(N)c23)cc1 [Example 37, N-(4-(3-amino-7-(5-methylpyridin-2-yl)-1H-pyrazolo[4,3-c]pyridin-4-yl)benzyl)-5-fluoro-2-methoxybenzamide] | ≤ 5 nM
2 | 5 to 10 nM | ≤ 5 nM | COc1ccc(F)cc1C(=O)NCc1ccc(-c2ncc(-c3ccc(C4COC4)cn3)c3[nH]nc(N)c23)cc1 [Example 43, N-(4-(3-amino-7-(5-(oxetan-3-yl)pyridin-2-yl)-1H-pyrazolo[4,3-c]pyridin-4-yl)benzyl)-5-fluoro-2-methoxybenzamide] | ≤ 5 nM
3 | 5 to 10 nM | ≤ 5 nM | COc1ccc(F)cc1C(=O)NCc1ccc(-c2ncc(-c3cc4ncccn4n3)c3[nH]nc(N)c23)cc1 [Example 44, N-(4-(3-amino-7-(pyrazolo[1,5-a]pyrimidin-2-yl)-1H-pyrazolo[4,3-c]pyridin-4-yl)benzyl)-5-fluoro-2-methoxybenzamide] | ≤ 5 nM
4 | > 50 nM | 5 to 10 nM | COc1ccc(F)cc1C(=O)NCc1ccc(-c2ncc(-c3ccn4nccc4n3)c3[nH]nc(N)c23)cc1 [Example 46, N-(4-(3-amino-7-(pyrazolo[1,5-a]pyrimidin-5-yl)-1H-pyrazolo[4,3-c]pyridin-4-yl)benzyl)-5-fluoro-2-methoxybenzamide] | ≤ 5 nM
5 | ≤ 5 nM | ≤ 5 nM | COc1ccc(F)cc1C(=O)NCc1ccc(-c2ncc(-c3ccc(C(=O)N4CCOCC4)cn3)c3[nH]nc(N)c23)cc1 [Example 52, N-(4-(3-amino-7-(5-(morpholine-4-carbonyl)pyridin-2-yl)-1H-pyrazolo[4,3-c]pyridin-4-yl)benzyl)-5-fluoro-2-methoxybenzamide] | ≤ 5 nM
6 | ≤ 5 nM | ≤ 5 nM | COc1ccc(F)cc1C(=O)NCc1ccc(-c2ncc(-c3ccc(C(=O)N4C[C@H](C)O[C@@H](C)C4)cn3)c3[nH]nc(N)c23)cc1 [Example 53, N-(4-(3-amino-7-(5-((2S,6S)-2,6-dimethylmorpholine-4-carbonyl)pyridin-2-yl)-1H-pyrazolo[4,3-c]pyridin-4-yl)benzyl)-5-fluoro-2-methoxybenzamide] | ≤ 5 nM
7 | 5 to 10 nM | ≤ 5 nM | COCCOc1ccc(-c2cnc(-c3ccc(CNC(=O)c4cc(F)ccc4OC)cc3)c3c(N)n[nH]c23)nc1 [Example 59, N-(4-(3-amino-7-(5-(2-methoxyethoxy)pyridin-2-yl)-1H-pyrazolo[4,3-c]pyridin-4-yl)benzyl)-5-fluoro-2-methoxybenzamide] | ≤ 5 nM
8 | 5 to 10 nM | ≤ 5 nM | COc1ccc(F)cc1C(=O)NCc1ccc(-c2ncc(-c3ccc(OCCN(C)C)cn3)c3[nH]nc(N)c23)cc1 [Example 60, N-(4-(3-amino-7-(5-(2-(dimethylamino)ethoxy)pyridin-2-yl)-1H-pyrazolo[4,3-c]pyridin-4-yl)benzyl)-5-fluoro-2-methoxybenzamide] | ≤ 5 nM
9 | ≤ 5 nM | ≤ 5 nM | COc1ccc(F)cc1C(=O)NCc1ccc(-c2ncc(-c3ccc(OCCN4CCOCC4)cn3)c3[nH]nc(N)c23)cc1 [Example 61, N-(4-(3-amino-7-(5-(2-morpholinoethoxy)pyridin-2-yl)-1H-pyrazolo[4,3-c]pyridin-4-yl)benzyl)-5-fluoro-2-methoxybenzamide] | ≤ 5 nM
10 | 10 to 50 nM | ≤ 5 nM | COc1ccc(F)cc1C(=O)NCc1ccc(-c2ncc(-c3ccc(OCCN4CCCC4)cn3)c3[nH]nc(N)c23)cc1 [Example 62, N-(4-(3-amino-7-(5-(2-(pyrrolidin-1-yl)ethoxy)pyridin-2-yl)-1H-pyrazolo[4,3-c]pyridin-4-yl)benzyl)-5-fluoro-2-methoxybenzamide] | ≤ 5 nM
11 | ≤ 5 nM | ≤ 5 nM | COc1ccc(F)cc1C(=O)NCc1ccc(-c2ncc(-c3ccc(C(C)(C)O)cn3)c3[nH]nc(N)c23)cc1 [Example 65, N-(4-(3-amino-7-(5-(2-hydroxypropan-2-yl)pyridin-2-yl)-1H-pyrazolo[4,3-c]pyridin-4-yl)benzyl)-5-fluoro-2-methoxybenzamide] | ≤ 5 nM
12 | ≤ 5 nM | ≤ 5 nM | COc1ccc(F)cc1C(=O)NCc1ccc(-c2ncc(-c3ccc(CN4CCCCC4)cn3)c3[nH]nc(N)c23)cc1 [Example 66, N-(4-(3-amino-7-(5-(piperidin-1-ylmethyl)pyridin-2-yl)-1H-pyrazolo[4,3-c]pyridin-4-yl)benzyl)-5-fluoro-2-methoxybenzamide] | ≤ 5 nM
13 | ≤ 5 nM | ≤ 5 nM | COc1ccc(F)cc1C(=O)NCc1ccc(-c2ncc(-c3ccc(CN4CCOCC4)cn3)c3[nH]nc(N)c23)cc1 [Example 67, N-(4-(3-amino-7-(5-(morpholinomethyl)pyridin-2-yl)-1H-pyrazolo[4,3-c]pyridin-4-yl)benzyl)-5-fluoro-2-methoxybenzamide] | ≤ 5 nM
14 | ≤ 5 nM | ≤ 5 nM | COc1ccc(F)cc1C(=O)NCc1ccc(-c2ncc(-c3ccc(CN4CCN(C)CC4)cn3)c3[nH]nc(N)c23)cc1 [Example 68, N-(4-(3-amino-7-(5-((4-methylpiperazin-1-yl)methyl)pyridin-2-yl)-1H-pyrazolo[4,3-c]pyridin-4-yl)benzyl)-5-fluoro-2-methoxybenzamide] | ≤ 5 nM
15 | 10 to 50 nM | ≤ 5 nM | COc1ccc(F)cc1C(=O)NCc1ccc(-c2ncc(-c3cc4ccccn4n3)c3[nH]nc(N)c23)cc1 [Example 69, N-(4-(3-amino-7-(pyrazolo[1,5-a]pyridin-2-yl)-1H-pyrazolo[4,3-c]pyridin-4-yl)benzyl)-5-fluoro-2-methoxybenzamide] | ≤ 5 nM
16 | 5 to 10 nM | ≤ 5 nM | COc1ccc(F)cc1C(=O)NCc1ccc(-c2ncc(-c3cc4n(n3)CCN(C)C4)c3[nH]nc(N)c23)cc1 [Example 71, N-(4-(3-amino-7-(5-methyl-4,5,6,7-tetrahydropyrazolo[1,5-a]pyrazin-2-yl)-1H-pyrazolo[4,3-c]pyridin-4-yl)benzyl)-5-fluoro-2-methoxybenzamide] | ≤ 5 nM
17 | 5 to 10 nM | ≤ 5 nM | CCN1CCn2nc(-c3cnc(-c4ccc(CNC(=O)c5cc(F)ccc5OC)cc4)c4c(N)n[nH]c34)cc2C1 [Example 72, N-(4-(3-amino-7-(5-ethyl-4,5,6,7-tetrahydropyrazolo[1,5-a]pyrazin-2-yl)-1H-pyrazolo[4,3-c]pyridin-4-yl)benzyl)-5-fluoro-2-methoxybenzamide] | ≤ 5 nM
18 | ≤ 5 nM | ≤ 5 nM | COc1ccc(F)cc1C(=O)NCc1ccc(-c2ncc(-c3ccc(N4CCN(C)C[C@@H]4C)cn3)c3[nH]nc(N)c23)cc1 [Example 74, (S)-N-(-4-(3-amino-7-(5-(2,4-dimethylpiperazin-1-yl)pyridin-2-yl) 1H-pyrazolo[4,3-c]pyridin-4-yl)benzyl)-5-fluoro-2-methoxybenzamide] | ≤ 5 nM
